According to patent US12180193B2, “Accelerating fibrosarcoma protein degrading compounds and associated methods of use” (Arvinas Operations, Inc., priority 2020, dated 2024):

Tests used:
[1] = biological target: T1, BRAF V600E (Homo sapiens, UniProt P15056, V600E); test: Cellular assay of target protein degradation, T-Rex 293 cells stably transfected with HA-BRAF_V600E (HA immunofluorescence, high content imaging); assay type: cell-based; details: T-Rex 293 HA-BRAF V600E; for DC50: half maximal degradation, read-out: BRaf V600E DC50; for Dmax: maximum degradation observed
T1 construct: expressed in transfected cells
Outline: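 Degradation of the HA-tagged construct is measured after 24 h treatment at 37 °C across 1 μM to 0.1 nM in 0.1% DMSO, in doxycycline-induced (1 ng/mL) cells. DC50 and Dmax come from HA fluorescence imaging.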

[2] = biological target: T2, BRAF G466V (Homo sapiens, UniProt P15056, G466V); test: Cellular assay of target protein degradation, T-Rex 293 cells stably transfected with HA-BRAF G466V (HA immunofluorescence, high content imaging); assay type: cell-based; details: T-Rex 293 HA-BRAF G466V; for DC50: half maximal degradation, read-out: BRaf G466V DC50; for Dmax: maximum degradation observed
T2 construct: expressed in transfected cells
Outline: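 Dose range spans 30 nM to 3 pM (0.1% DMSO) over 24 hours at 37° C, in cells induced with 0.75 ng/mL doxycycline. Fixed cells are probed with anti-HA antibody overnight at 4° C, then imaged; half-maximal degradation and maximum degradation are derived.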

T2 sequence (P15056 whole entry G466V): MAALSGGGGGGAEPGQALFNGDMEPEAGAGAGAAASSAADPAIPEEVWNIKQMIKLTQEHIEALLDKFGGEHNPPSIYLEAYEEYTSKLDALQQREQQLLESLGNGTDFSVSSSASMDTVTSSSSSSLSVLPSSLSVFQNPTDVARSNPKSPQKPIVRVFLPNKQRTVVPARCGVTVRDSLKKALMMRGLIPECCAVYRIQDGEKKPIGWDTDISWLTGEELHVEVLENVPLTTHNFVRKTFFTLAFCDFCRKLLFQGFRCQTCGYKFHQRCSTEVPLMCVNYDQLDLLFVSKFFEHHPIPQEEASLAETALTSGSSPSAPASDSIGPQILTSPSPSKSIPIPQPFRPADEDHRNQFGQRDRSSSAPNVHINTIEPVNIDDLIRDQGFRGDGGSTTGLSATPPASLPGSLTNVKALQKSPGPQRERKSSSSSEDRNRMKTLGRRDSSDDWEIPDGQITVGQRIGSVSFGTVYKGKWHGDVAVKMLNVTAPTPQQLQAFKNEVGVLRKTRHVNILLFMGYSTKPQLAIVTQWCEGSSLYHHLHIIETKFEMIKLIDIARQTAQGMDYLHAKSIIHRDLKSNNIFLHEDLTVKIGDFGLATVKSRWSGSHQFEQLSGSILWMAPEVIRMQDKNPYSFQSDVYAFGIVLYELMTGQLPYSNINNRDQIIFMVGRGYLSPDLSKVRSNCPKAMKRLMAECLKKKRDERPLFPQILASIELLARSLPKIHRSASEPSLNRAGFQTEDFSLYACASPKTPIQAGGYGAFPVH
T1 sequence (P15056 whole entry V600E): as the sequence (P15056 whole entry G466V) above, with V466G, V600E counted along it

Row | SMILES | DC50 [1] [µM] | Dmax [1] [%] | DC50 [2] [µM] | Dmax [2] [%]
1 | C[C@@]12CN(CC3CCN(c4ccc5c(c4)CN([C@H]4CCC(=O)NC4=O)C5=O)CC3)C[C@@H]1CN(c1ccc(-c3cnc4[nH]cc(C(=O)c5c(F)ccc(NS(=O)(=O)N6CC[C@@H](F)C6)c5F)c4c3)cc1)C2 [Compound 51, (3R)-N-[3-(5-{4-[(3aS,6aR)-5-[(1-{2-[(3S)-2,6-dioxopiperidin-3-yl]-1-oxo-2,3-dihydro-1H-isoindol-5-yl}piperidin-4-yl)methyl]-3a-methyl-octahydropyrrolo[3,4-c]pyrrol-2-yl]phenyl}-1H-pyrrolo[2,3-b]pyridine-3-carbonyl)-2,4-difluorophenyl]-3-fluoropyrrolidine-1-sulfonamide] | 0.05 to 0.5 | 35 to 70 | 0.001 to 0.01 | 35 to 70
2 | O=C1CCC(N2Cc3cc(C4CCN(CCOc5ccc(-c6cnc7[nH]cc(C(=O)c8c(F)ccc(NS(=O)(=O)N9CC[C@@H](F)C9)c8F)c7c6)cc5)CC4)ccc3C2=O)C(=O)N1 (stereo partly drawn) [Compound 69, (3R)-N-(3-{5-[4-(2-{4-[2-(2,6-dioxopiperidin-3-yl)-1-oxo-2,3-dihydro-1H-isoindol-5-yl]piperidin-1-yl}ethoxy)phenyl]-1H-pyrrolo[2,3-b]pyridine-3-carbonyl}-2,4-difluorophenyl)-3-fluoropyrrolidine-1-sulfonamide] | 0.005 to 0.05 | 35 to 70 | 0.001 to 0.01 | > 70
3 | O=C1CC[C@H](N2Cc3cc(C[C@H](O)CN4CCN(c5ccc(-c6cnc7[nH]cc(C(=O)c8c(F)ccc(NS(=O)(=O)N9CC[C@@H](F)C9)c8F)c7c6)cc5)CC4)ccc3C2=O)C(=O)N1 [Compound 74] | 0.005 to 0.05 | 35 to 70 | 0.001 to 0.01 | > 70
4 | O=C1CCC(NC(=O)c2ccc(OCCCCN3CCN(c4ccc(-c5cnc6[nH]cc(C(=O)c7c(F)ccc(NS(=O)(=O)N8CC[C@@H](F)C8)c7F)c6c5)cc4)CC3)cc2F)C(=O)N1 (stereo partly drawn) [Compound 350, 4-{4-[4-(4-{3-[2,6-difluoro-3-({[(3R)-3-fluoropyrrolidin-1-yl]sulfonyl}amino)benzoyl]-1H-pyrrolo[2,3-b]pyridin-5-yl}phenyl)piperazin-1-yl]butoxy}-N-(2,6-dioxopiperidin-3-yl)-2-fluorobenzamide] | 0.05 to 0.5 | < 35 | > 0.03 | 
5 | COc1cc(C2CCN(CC3CCN(c4ccc(-c5cnc6[nH]cc(C(=O)c7c(F)ccc(NS(=O)(=O)N8CC[C@@H](F)C8)c7F)c6c5)cn4)CC3)CC2)cc2c1C(=O)N(C1CCC(=O)NC1=O)C2 (stereo partly drawn) [Compound 164, (3R)-N-[3-(5-{6-[4-({4-[2-(2,6-dioxopiperidin-3-yl)-7-methoxy-1-oxo-2,3-dihydro-1H-isoindol-5-yl]piperidin-1-yl}methyl)piperidin-1-yl]pyridin-3-yl}-1H-pyrrolo[2,3-b]pyridine-3-carbonyl)-2,4-difluorophenyl]-3-fluoropyrrolidine-1-sulfonamide] | 0.005 to 0.05 | 35 to 70 | < 0.001 | > 70

The remaining lines, values ahead:

Row | DC50 [1] [µM] | Dmax [1] [%] | DC50 [2] [µM] | Dmax [2] [%] | SMILES
6 | 0.005 to 0.05 | 35 to 70 | 0.001 to 0.01 | 35 to 70 | COc1cc(OCCCCN2CCN(c3ccc(-c4cnc5[nH]cc(C(=O)c6c(F)ccc(NS(=O)(=O)N7CC[C@@H](F)C7)c6F)c5c4)cc3)CC2)cc2c1C(=O)N(C1CCC(=O)NC1=O)C2 (stereo partly drawn) [Compound 331, (3R)-N-[3-(5-{4-[4-(4-{[2-(2,6-dioxopiperidin-3-yl)-7-methoxy-1-oxo-2,3-dihydro-1H-isoindol-5-yl]oxy}butyl)piperazin-1-yl]phenyl}-1H-pyrrolo[2,3-b]pyridine-3-carbonyl)-2,4-difluorophenyl]-3-fluoropyrrolidine-1-sulfonamide]
7 | > 0.5 |  | > 0.03 |  | COc1ccc(NS(=O)(=O)N2CC[C@@H](F)C2)c(OC)c1C(=O)c1c[nH]c2ncc(-c3ccc(N4CCC(CN5CCC(c6ccc7c(c6)CN([C@H]6CCC(=O)NC6=O)C7=O)CC5)CC4)cc3)cc12 [Compound 274, (3R)-N-{3-[5-(4-{4-[(4-{2-[(3S)-2,6-dioxopiperidin-3-yl]-1-oxo-2,3-dihydro-1H-isoindol-5-yl}piperidin-1-yl)methyl]piperidin-1-yl}phenyl)-1H-pyrrolo [2,3-b]pyridine-3-carbonyl]-2,4-dimethoxyphenyl}-3-fluoropyrrolidine-1-sulfonamide]
8 | 0.05 to 0.5 | 35 to 70 | 0.001 to 0.01 | > 70 | COc1cc([C@H](O)CCN2CCN(c3ccc(-c4cnc5[nH]cc(C(=O)c6c(F)ccc(NS(=O)(=O)N7CC[C@@H](F)C7)c6F)c5c4)cc3)CC2)cc2c1C(=O)N([C@H]1CCC(=O)NC1=O)C2 [Compound 186, (3R)-N-{3-[5-(4-{4-[(3R)-3-{2-[(3S)-2,6-dioxopiperidin-3-yl]-7-methoxy-1-oxo-2,3-dihydro-1H-isoindol-5-yl}-3-hydroxypropyl]piperazin-1-yl}phenyl)-1H-pyrrolo[2,3-b]pyridine-3-carbonyl]-2,4-difluorophenyl}-3-fluoropyrrolidine-1-sulfonamide]
9 | 0.005 to 0.05 | 35 to 70 | 0.001 to 0.01 | > 70 | O=C1CC[C@H](NC(=O)N2CCCc3c(C4CCN(CC5CCN(c6ccc(-c7cnc8[nH]cc(C(=O)c9c(F)ccc(NS(=O)(=O)N%10CC[C@@H](F)C%10)c9F)c8c7)cc6)CC5)CC4)ccnc32)C(=O)N1 [Compound 366, 5-(1-{[1-(4-{3-[2,6-difluoro-3-({[(3R)-3-fluoropyrrolidin-1-yl]sulfonyl}amino)benzoyl]-1H-pyrrolo[2,3-b]pyridin-5-yl}phenyl)piperidin-4-yl]methyl}piperidin-4-yl)-N-[(3S)-2,6-dioxopiperidin-3-yl]-1,2,3,4-tetrahydro-1,8-naphthyridine-1-carboxamide]
10 | 0.005 to 0.05 | 35 to 70 | < 0.001 | 35 to 70 | O=C1CC[C@H](N2Cc3cc(C4CCN(CC5CCN(c6ccc(-c7cnc8[nH]cc(C(=O)c9c(F)ccc(NS(=O)(=O)CC%10CC%10)c9F)c8c7)cc6)CC5)CC4)ccc3C2=O)C(=O)N1 [Compound 206, 1-cyclopropyl-N-{3-[5-(4-{4-[(4-{2-[(3S)-2,6-dioxopiperidin-3-yl]-1-oxo-2,3-dihydro-1H-isoindol-5-yl}piperidin-1-yl)methyl]piperidin-1-yl}phenyl)-1H-pyrrolo[2,3-b]pyridine-3-carbonyl]-2,4-difluorophenyl}methanesulfonamide]
11 | 0.005 to 0.05 | 35 to 70 | 0.001 to 0.01 | > 70 | COc1cc(N2CC3(CN(CC4CCN(c5ccc(-c6cnc7[nH]cc(C(=O)c8c(F)ccc(NS(=O)(=O)N9CC[C@@H](F)C9)c8F)c7c6)cc5)CC4)C3)C2)cc2c1C(=O)N([C@H]1CCC(=O)NC1=O)C2 [Compound 249, (3R)-N-{3-[5-(4-{4-[(6-{2-[(3S)-2,6-dioxopiperidin-3-yl]-7-methoxy-1-oxo-2,3-dihydro-1H-isoindol-5-yl}-2,6-diazaspiro[3.3]heptan-2-yl)methyl]piperidin-1-yl}phenyl)-1H-pyrrolo [2,3-b]pyridine-3-carbonyl]-2,4-difluorophenyl}-3-fluoropyrrolidine-1-sulfonamide]
